Assay results taken from patent US11401278B2, “Macrocyclic indole derivatives” (The Broad Institute, Inc., priority 2017, dated 2022).
Structures can show the parent of a compound that is named as a salt. Where two headings read alike, the source gives them in different places.

Legend:
BCL-XL = BCL-XL (Homo sapiens (Human), UniProt Q07817); experiment: Protein-protein interaction assay BCL-XL/Bad BH3 peptide (BCL-XL assay, TR-FRET); assay type: binding; details: His-BCL-XL / Bad BH3 peptide, median
Protocol: Assay 2 Protein-Protein Interaction Assay: BCL-XL/Bad BH3 Peptide (BCL-XL Assay)
The dose-dependent inhibition by the compounds described in this invention of the interaction between BCL-XL and the BH3 domain of Bad (both human) was determined using a steady state binding competition assay with time-resolved fluorescence energy transfer (TR-FRET) readout. For that purpose BCL-XL (amino acids 1-212, C-terminal fused to a hexahistidine (6×His) tag (SEQ ID 3) and a synthetic Bad BH3-derived peptide of sequence Biotin-PEG2-PEG2-NLWAAQRYGRELRR-Nle-SDEFVDSFKK-amide (SEQ ID 4) served as protein receptor and tracer ligand respectively. The recombinant BCL-XL protein (expressed in E. coli) was purchased from BPS Bioscience (San Diego, Calif., USA). The Bad BH3-derived peptide can be obtained from e.g. Biosyntan (Berlin, Germany).
In the assay 11 different concentrations of each compound (0.1 nM, 0.33 nM, 1.1 nM, 3.8 nM, 13 nM, 44 nM, 0.15 μM, 0.51 μM, 1.7 μM, 5.9 μM and 20 μM) were typically measured as duplicates in the same microtiter plate. For that, 100-fold concentrated DMSO solutions were prepared by serial dilutions (1:3.4) of a 2 mM stock solution in a clear, 384-well microtiter plate (Greiner Bio-One, Frickenhausen, Germany). From there, 50 nl were transferred in a dark test plate (Greiner Bio-One, Frickenhausen, Germany). The assay was initiated by addition of 2 μl of a 2.5-fold concentrated His-BCL-XL solution (usually for a 1 nM end concentration in 5 μl reaction volume) in aqueous assay buffer [50 mM Tris/HCl pH 7, 100 mM sodium chloride (NaCl), 50 mM potassium fluoride (KF), 0.005% Tween-20, 2 mM DTT, 0.1% bovine gamma globulin (BGG)] to the compounds in the assay plate. This was followed by a 10-minute incubation step at 22° C. for pre-equilibration of the putative complex between His-BCL-XL and the compounds. After that, 3 μl of a 1.67-fold concentrated solution (in assay buffer) consisting of Bad BH3-derived peptide (1 nM end concentration) and TR-FRET detection reagents [1.67 nM anti-His-Eu cryptate and 1.67 nM streptavidin-XL665 (both from Cisbio Bioassays, Codolet, France)], were added.
The mixture was incubated in the dark for one hour at 22° C. and then overnight at 4° C. The formation of BCL-XL/Bad complexes was determined by measuring the resonance energy transfer of the anti-His- Eu-cryptate antibody to the streptavidin-XL665 present in the reaction. For that purpose, the fluorescence emission at 620 nm and 665 nm after excitation at 330-350 nm was measured in a TR-FRET measuring instrument, for instance a Rubystar or a Pherastar (both from BMG Lab Technologies, Offenburg, Germany) or a Viewlux (Perkin-Elmer). The ratio of the emission at 665 nm and at 622 nm was used as indicator of the amount of BCL-XL/Bad complexes present.
The resulting data (ratio) were normalized, taking 0% inhibition as the mean value of control measurements (usually 32 data points) where all reagents were included. In this case 50 nl DMSO were used instead of compounds. A 100% inhibition corresponded to the mean value of control measurements (usually 32 data points) where all reagents except BCL-XL were included. IC50 values were determined by regression analysis based on a 4 parameter equation (minimum, maximum, IC50, Hill; Y=Max+(Min−Max)/(1+(X/IC50)^HiII) using the Screener Software (Genedata).

MV-4-11 = experiment: Antiproliferation assay (Assay 7), MV-4-11; assay type: cell-based; details: CellTiter-Glo, several values per example
Protocol: Assessment of the Anti-Proliferative Effect of Compounds in Different Cell Lines
The impact of compounds on the proliferation of different cell lines was assessed using the CellTiter-Glo® Luminescent Cell Viability reagent from Promega (G7573).
In parallel, cells were plated in a reference (day 0) plate for time zero determination.
Rim wells were excluded. The cells were incubated for 72 hours in a humidified incubator at 37° C. The day 0 plate was measured by adding 30 μL/well of CTG solution (CellTiter-Glo® Luminescent Cell Viability reagent, Promega G7573) to time zero wells in the reference plate followed by a 10 minutes incubation and luminescence reading at 0.1 ms. using the PHERAstar FS microplate reader (BMG Labtech).
After 72 hours incubation, the treated plates were measured in the same way as the day 0 plate mentioned above.

[1] = Homo sapiens, MV4-11, 72 h, read-out: Antiproli MV-4-11 [M] IC50

BCL-XL, sequence (Q07817 other isoform, or with tags, fused parts or gaps): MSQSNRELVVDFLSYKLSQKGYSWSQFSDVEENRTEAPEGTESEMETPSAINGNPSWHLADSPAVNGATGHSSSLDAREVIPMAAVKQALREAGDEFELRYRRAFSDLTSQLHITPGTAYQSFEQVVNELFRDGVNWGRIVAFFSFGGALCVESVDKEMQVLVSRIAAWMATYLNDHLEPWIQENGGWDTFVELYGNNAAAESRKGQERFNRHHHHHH

Row | SMILES | IC50 (BCL-XL) | IC50 (MV-4-11; [1]) | IC50 (MV-4-11; 72 hours, read-out: Antiproli MV-4-11 [M] IC50) | IC50 (MV-4-11; 72 hours, listed as 03, read-out: Antiproli MV-4-11 [M] IC50) | IC50 (MV-4-11; 72 hours, listed as 06, read-out: Antiproli MV-4-11 [M] IC50)
1 | CCc1c2c(nn1C)CN(C)S(=O)(=O)CCCn1c(C(=O)O)c(CCCOc3cccc4c3CCCC4)c3ccc(F)c-2c31 (racemic) [Example 34, (rac)-12-Ethyl-13-fluoro-8,11-dimethyl-1-(3-((5,6,7,8-tetrahydronaphthalen-1-yl)oxy)propyl)-5,6,9,11-tetrahydro-4H,8H-pyrazolo[3′,4′:4,5][1]thia[2,8]diazacycloundecino[6,7,8-hi]indole-2-carboxylic acid 7,7-dioxide] | > 20 µM | 4.83e-06 M |  |  | 
2 | CCc1c2c(nn1C)CN(CCN1CCOCC1)S(=O)(=O)CCCn1c(C(=O)O)c(CCCOc3cccc4cc(F)ccc34)c3ccc(Cl)c-2c31 [Example 77, (rac)-13-chloro-12-ethyl-1-(3-((6-fluoronaphthalen-1-yl)oxy)propyl)-11-methyl-8-(2-morpholinoethyl)-5,6,9,11-tetrahydro-4H,8H-pyrazolo[3′,4′:4,5][1]thia[2,8]diazacycloundecino[6,7,8-hi]indole-2-carboxylic acid 7,7-dioxide] | > 20 µM |  |  |  | 
3 | Cc1c2c(nn1C)CN(C)S(=O)(=O)CCCn1c(C(=O)O)c(CCCOc3cccc4c3CCC4)c3ccc(F)c-2c31 (racemic) [Example 27, (rac)-1-(3-((2,3-Dihydro-1H-inden-4-yl)oxy)propyl)-13-fluoro-8,11,12-trimethyl-5,6,9,11-tetrahydro-4H,8H-pyrazolo[3′,4′:4,5][1]thia[2,8]diazacycloundecino[6,7,8-hi]indole-2-carboxylic acid 7,7-dioxide] | > 20 µM | 8.61e-07 M |  |  | 
4 | CCc1c2c(nn1C)CN(C)S(=O)(=O)CCCn1c(C(=O)O)c(CCCOc3ccc(F)c4ccccc34)c3ccc(F)c-2c31 (racemic) [Example 35, (rac)-12-Ethyl-13-fluoro-1-(34(4-fluoronaphthalen-1-yl)oxy)propyl)-8,11-dimethyl-5,6,9,11-tetrahydro-4H,8H-pyrazolo[3′,4′:4,5][1]thia[2,8]diazacycloundecino[6,7,8-hi]indole-2-carboxylic acid 7,7-dioxide] | > 20 µM | 4.34e-06 M | 8.18e-06 M |  | 
5 | Cc1c2c(nn1C)CN(C)S(=O)(=O)CCCn1c(C(=O)O)c(CCCOc3cccc4ccccc34)c3ccc(F)c-2c31 (racemic) [Example 26, (rac)-13-Fluoro-8,11,12-trimethyl-1-(3-(naphthalen-1-yloxy)propyl)-5,6,9,11-tetrahydro-4H,8H-pyrazolo[3′,4′:4,5][1]thia[2,8]diazacycloundecino[6,7,8-hi]indole-2-carboxylic acid 7,7-dioxide] | > 20 µM | 5.17e-07 M |  |  | 
6 | CCc1c2c(nn1C)CN(CCCN1CCCC1)S(=O)(=O)CCCn1c(C(=O)O)c(CCCOc3cccc4ccccc34)c3cccc-2c31 (racemic) [Example 16, (rac)-12-Ethyl-11-methyl-1-(3-(naphthalen-1-yloxy)propyl)-8-(3-(pyrrolidin-1-yl)propyl)-5,6,9,11-tetrahydro-4H,8H-pyrazolo[3′,4′:4,5][1]thia[2,8]diazacycloundecino[6,7,8-hi]indole-2-carboxylic acid 7,7-dioxide] | > 20 µM | > 3.3e-05 M |  |  | 
7 | Cc1c2c(nn1C)CN(CCN1CCOCC1)S(=O)(=O)CCCn1c(C(=O)O)c(CCCOc3cccc4ccccc34)c3cccc-2c31 (single isomer, unassigned; enantiomer 2) [Example 3, 2,3-Dimethyl-14-[2-(morpholin-4-yl)ethyl]-7-{3-[(naphthalen-1-yl)oxy]propyl}-13,13-dioxo-10,11,12,13,14,15-hexahydro-2H-13λ^6-pyrazolo[3′,4′:4,5][1,2,8]thiadiazacycloundecino-[6,7,8-hi]indole-8-carboxylic acid-N-ethylethanamine salt (Enantiomer 2)] | > 20 µM |  |  | 1.54e-05 M | 
8 | Cc1c2c(nn1C)CN(C)S(=O)(=O)CCCn1c(C(=O)O)c(CCCOc3cccc4ccccc34)c3ccc(Cl)c-2c31 (single isomer, unassigned; enantiomer 2) [Example 6, 4-Chloro-2,3,14-trimethyl-7-{3-[(naphthalen-1-yl)oxy]propyl}-13,13-dioxo-10,11,12,13,14,15-hexahydro-2H-13λ^6-pyrazolo[3′,4′:4,5][1,2,8]thiadiazacycloundecino[6,7,8-hi]indole-8-carboxylic acid-N-ethylethanamine salt (Enantiomer 2)] | 18 µM |  |  |  | 2.02e-05 M
9 | CCc1c2c(nn1C)C(C)N(C)S(=O)(=O)CCCn1c(C(=O)O)c(CCCOc3cccc4ccccc34)c3cccc-2c31 (racemic) [Example 18, 12-Ethyl-8,9,11-trimethyl-1-(3-(naphthalen-1-yloxy)propyl)-5,6,9,11-tetrahydro-4H,8H-pyrazolo[3′,4′:4,5][1]thia[2,8]diazacycloundecino[6,7,8-hi]indole-2-carboxylic acid 7,7-dioxide (Mixture of Stereoisomers)] | > 20 µM | 3.75e-06 M |  |  | 
10 | CCc1c2c(nn1C)C(CCC1CCOCC1)N(C)S(=O)(=O)CCCn1c(C(=O)O)c(CCCOc3cccc4cc(F)ccc34)c3ccc(Cl)c-2c31 (single isomer, unassigned; enantiomer 3) [Example 63, (+)-4-chloro-3-ethyl-7-{3-[(6-fluoronaphthalen-1-yl)oxy]propyl}-2,14-dimethyl-15-[2-(oxan-4-yl)ethyl]-13,13-dioxo-10,11,12,13,14,15-hexahydro-2H-13lambda^6-pyrazolo[3′,4′:4,5][1,2,8]thiadiazacycloundecino[6,7,8-hi]indole-8-carboxylic acid (Enantiomer 3)] | 19 µM |  |  |  | 
11 | Cc1c2c(nn1C)CNS(=O)(=O)CCCn1c(C(=O)O)c(CCCOc3cccc4cc(F)ccc34)c3ccc(Cl)c-2c31 (single isomer, unassigned; enantiomer 1) [Example 51, 4-chloro-7-{3-[(6-fluoronaphthalen-1-yl)oxy]propyl}-2,3-dimethyl-13,13-dioxo-10,11,12,13,14,15-hexahydro-2H-13lambda^6-pyrazolo[3′,4′:4,5][1,2,8]thiadiazacycloundecino[6,7,8-hi]indole-8-carboxylic acid (Enantiomer 1)] | > 20 µM |  |  |  | 
12 | CCc1c2c(nn1C)C(CCC1CCOCC1)N(C)S(=O)(=O)CCCn1c(C(=O)O)c(CCCOc3cccc4cc(F)ccc34)c3ccc(Cl)c-2c31 (single isomer, unassigned; enantiomer 1) [Example 61, (+)-4-chloro-3-ethyl-7-{3-[(6-fluoronaphthalen-1-yl)oxy]propyl}-2,14-dimethyl-15-[2-(oxan-4-yl)ethyl]-13,13-dioxo-10,11,12,13,14,15-hexahydro-2H-13lambda^6-pyrazolo[3′,4′:4,5][1,2,8]thiadiazacycloundecino[6,7,8-hi]indole-8-carboxylic acid (Enantiomer 1)] | > 20 µM |  |  |  | 
